Data from US12187723B2 (BRISTOL-MYERS SQUIBB COMPANY, priority 2019, dated 2025).

Assays:
human TLR7 = molecular target: T1, human TLR7 (Homo sapiens, UniProt Q9NYK1); assay: TLR7 inhibition reporter assay (HEK-Blue SEAP); type: cell-based; settings: HEK-Blue cells overexpressing human TLR7, gardiquimod 7.5 μM, 22 hour incubation
T1 construct: host or cells: HEK-Blue cells
T1 sequence (Q9NYK1 27-1049): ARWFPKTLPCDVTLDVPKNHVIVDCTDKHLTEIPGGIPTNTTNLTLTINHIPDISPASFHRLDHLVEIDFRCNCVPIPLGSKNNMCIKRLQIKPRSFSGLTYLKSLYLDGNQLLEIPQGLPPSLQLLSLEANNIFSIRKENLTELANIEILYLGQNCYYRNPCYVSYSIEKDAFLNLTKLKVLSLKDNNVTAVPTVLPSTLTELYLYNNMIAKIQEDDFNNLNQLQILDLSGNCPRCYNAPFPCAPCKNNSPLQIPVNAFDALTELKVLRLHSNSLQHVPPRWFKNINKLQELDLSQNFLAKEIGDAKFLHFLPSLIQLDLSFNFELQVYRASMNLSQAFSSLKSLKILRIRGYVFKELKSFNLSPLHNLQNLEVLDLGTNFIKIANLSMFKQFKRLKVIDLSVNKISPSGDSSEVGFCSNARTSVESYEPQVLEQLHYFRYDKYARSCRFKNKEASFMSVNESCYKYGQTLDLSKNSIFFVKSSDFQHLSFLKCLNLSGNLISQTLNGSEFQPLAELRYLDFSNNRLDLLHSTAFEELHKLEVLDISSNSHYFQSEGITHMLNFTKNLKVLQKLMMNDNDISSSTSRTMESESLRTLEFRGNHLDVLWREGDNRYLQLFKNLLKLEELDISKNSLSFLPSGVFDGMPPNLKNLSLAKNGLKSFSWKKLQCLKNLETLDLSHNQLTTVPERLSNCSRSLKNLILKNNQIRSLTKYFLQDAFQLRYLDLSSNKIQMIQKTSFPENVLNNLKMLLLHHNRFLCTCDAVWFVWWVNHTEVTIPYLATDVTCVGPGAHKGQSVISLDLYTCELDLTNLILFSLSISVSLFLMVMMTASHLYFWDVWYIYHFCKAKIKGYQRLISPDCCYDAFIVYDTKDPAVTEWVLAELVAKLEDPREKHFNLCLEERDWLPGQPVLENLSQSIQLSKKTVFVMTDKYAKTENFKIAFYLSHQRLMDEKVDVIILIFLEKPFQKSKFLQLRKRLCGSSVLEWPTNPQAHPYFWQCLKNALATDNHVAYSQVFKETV
How it was run: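 HEK-Blue reporter cells (15,000/well TLR7, 20,000 TLR8) exposed to compound over 0.05 nM–50 μM, agonist-stimulated (R848 for TLR8, gardiquimod for TLR7), 22 h at 37 °C, 5% CO2. SEAP read with HEK-Blue Detection; % inhibition relative to agonist-plus-DMSO and known-inhibitor controls.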

human TLR9 = molecular target: T2, human TLR9 (Homo sapiens, UniProt Q9NR96); assay: TLR9 inhibition reporter assay (HEK-Blue SEAP); type: cell-based; settings: HEK-Blue cells overexpressing human TLR9, ODN2006 5 nM, 22 hour incubation
T2 construct: host or cells: HEK-Blue cells
T2 sequence (Q9NR96 26-1032): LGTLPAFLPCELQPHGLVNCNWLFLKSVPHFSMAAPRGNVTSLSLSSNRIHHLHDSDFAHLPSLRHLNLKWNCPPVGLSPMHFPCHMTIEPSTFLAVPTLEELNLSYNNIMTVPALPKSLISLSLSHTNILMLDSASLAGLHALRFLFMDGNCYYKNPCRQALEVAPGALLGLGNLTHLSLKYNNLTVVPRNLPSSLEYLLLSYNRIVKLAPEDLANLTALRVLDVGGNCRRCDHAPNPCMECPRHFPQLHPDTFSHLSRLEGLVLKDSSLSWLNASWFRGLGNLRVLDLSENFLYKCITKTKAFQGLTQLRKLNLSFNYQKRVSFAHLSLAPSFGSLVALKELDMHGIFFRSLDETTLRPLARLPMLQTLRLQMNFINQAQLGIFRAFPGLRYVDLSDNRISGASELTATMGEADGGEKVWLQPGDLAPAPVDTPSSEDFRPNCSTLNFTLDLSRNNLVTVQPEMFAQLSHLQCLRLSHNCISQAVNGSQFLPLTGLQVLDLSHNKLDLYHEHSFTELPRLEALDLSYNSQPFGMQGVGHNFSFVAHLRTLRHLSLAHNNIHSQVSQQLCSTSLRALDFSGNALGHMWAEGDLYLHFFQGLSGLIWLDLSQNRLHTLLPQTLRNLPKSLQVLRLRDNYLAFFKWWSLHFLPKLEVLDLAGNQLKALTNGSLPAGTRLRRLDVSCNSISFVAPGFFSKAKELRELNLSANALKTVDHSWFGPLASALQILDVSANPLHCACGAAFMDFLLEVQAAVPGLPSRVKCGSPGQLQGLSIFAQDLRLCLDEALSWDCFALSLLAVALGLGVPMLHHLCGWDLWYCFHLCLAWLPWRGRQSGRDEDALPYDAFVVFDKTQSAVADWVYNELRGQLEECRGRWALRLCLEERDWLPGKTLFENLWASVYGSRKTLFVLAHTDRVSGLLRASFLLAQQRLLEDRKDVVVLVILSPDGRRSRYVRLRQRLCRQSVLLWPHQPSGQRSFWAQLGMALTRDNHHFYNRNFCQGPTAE
How it was run: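 Agonists used: gardiquimod 7.5 μM (TLR7), R848 15.9 μM (TLR8), ODN2006 5 nM (TLR9), added after 30 min room-temperature compound pre-treatment (0.05 nM–50 μM) of receptor-overexpressing HEK-Blue cells. SEAP reporter (NF-κB/AP-1 driven) read after 22 h at 37 °C; inhibition scaled between agonist+DMSO and reference-inhibitor wells.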

SMILES	IC50 (human TLR7)	IC50 (human TLR9)
Cc1cc2c(cc1-c1cc(C)c3ncnn3c1)[nH]c(=O)n2[C@@H]1CCCN(CC2CCOCC2)C1 [Example 41, (R)-6-methyl-5-(8-methyl-[1,2,4]triazolo[1,5-a]pyridin-6-yl)-1-(1-((tetrahydro-2H-pyran-4-yl)methyl)piperidin-3-yl)-1,3-dihydro-2H-benzo[d]imidazol-2-one]	12.3 nM	8120 nM
CCCN1CCC[C@@H](n2c(=O)[nH]c3cc(-c4cc(C)c5ncnn5c4)c(C)cc32)C1 [Example 42, (R)-6-methyl-5-(8-methyl-[1,2,4]triazolo[1,5-a]pyridin-6-yl)-1-(1-propylpiperidin-3-yl)-1,3-dihydro-2H-benzo[d]imidazol-2-one]	26.3 nM	10500 nM
Cc1cc2c(cc1-c1cc(C)c3ncnn3c1)[nH]c(=O)n2[C@@H]1CCCN(CC2CCOC2)C1 (stereo partly drawn) [Example 43, 6-methyl-5-(8-methyl-[1,2,4]triazolo[1,5-a]pyridin-6-yl)-1-((3R)-1-((tetrahydrofuran-3-yl)methyl)piperidin-3-yl)-1,3-dihydro-2H-benzo[d]imidazol-2-one]	88.5 nM	16500 nM
Cc1cc2c(cc1-c1cc(C)c3ncnn3c1)[nH]c(=O)n2[C@@H]1CCCN(CCC(C)(C)C)C1 [Example 44, (R)-1-(1-(3,3-dimethylbutyl)piperidin-3-yl)-6-methyl-5-(8-methyl-[1,2,4]triazolo[1,5-a]pyridin-6-yl)-1,3-dihydro-2H-benzo[d]imidazol-2-one]	104 nM	4720 nM
CCC(CC)CN1CCC[C@@H](n2c(=O)[nH]c3cc(-c4cc(C)c5ncnn5c4)c(C)cc32)C1 [Example 45, (R)-1-(1-(2-ethylbutyl)piperidin-3-yl)-6-methyl-5-(8-methyl-[1,2,4]triazolo[1,5-a]pyridin-6-yl)-1,3-dihydro-2H-benzo[d]imidazol-2-one]	29.5 nM	3030 nM
Cc1cc2c(cc1-c1cc(C)c3ncnn3c1)[nH]c(=O)n2[C@@H]1CCCN(Cc2cccnc2)C1 [Example 46, (R)-6-methyl-5-(8-methyl-[1,2,4]triazolo[1,5-a]pyridin-6-yl)-1-(1-(pyridin-3-ylmethyl)piperidin-3-yl)-1,3-dihydro-2H-benzo[d]imidazol-2-one]	172 nM	7670 nM
Cc1cc2c(cc1-c1cc(C)c3ncnn3c1)[nH]c(=O)n2[C@@H]1CCCN(CC2CCCC2)C1 [Example 47, (R)-1-(1-(cyclopentylmethyl)piperidin-3-yl)-6-methyl-5-(8-methyl-[1,2,4]triazolo[1,5-a]pyridin-6-yl)-1,3-dihydro-2H-benzo[d]imidazol-2-one]	18.5 nM	3620 nM
COc1cc(-c2cc3[nH]c(=O)n([C@H]4CC[C@@H](N(C)C)CC4)c3cc2C)cn2ncnc12 [Example 48, 1-((1s,4s)-4-(dimethylamino)cyclohexyl)-5-(8-methoxy-[1,2,4]triazolo[1,5-a]pyridin-6-yl)-6-methyl-1,3-dihydro-2H-benzo[d]imidazol-2-one]	14.8 nM	3770 nM
COc1cc(-c2cc3[nH]c(=O)n([C@H]4CC[C@@H](NC5CCOCC5)CC4)c3cc2C)cn2ncnc12 [Example 49, 5-(8-methoxy-[1,2,4]triazolo[1,5-a]pyridin-6-yl)-6-methyl-1-((1s,4s)-4-((tetrahydro-2H-pyran-4-yl)amino)cyclohexyl)-1,3-dihydro-2H-benzo[d]imidazol-2-one]	18.2 nM	7430 nM

The remaining lines, values ahead:

IC50 (human TLR7)	IC50 (human TLR9)	SMILES
38.5 nM	10900 nM	COc1cc(-c2cc3[nH]c(=O)n([C@H]4CC[C@@H](NC(C)C)CC4)c3cc2C)cn2ncnc12 [Example 50, 1-((1s,4s)-4-(isopropylamino)cyclohexyl)-5-(8-methoxy-[1,2,4]triazolo[1,5-a]pyridin-6-yl)-6-methyl-1,3-dihydro-2H-benzo[d]imidazol-2-one]
32.5 nM	8390 nM	COc1cc(-c2cc3[nH]c(=O)n([C@@H]4CCCN(C)C4)c3cc2C)cn2ncnc12 [Example 51, (R)-5-(8-methoxy-[1,2,4]triazolo[1,5-a]pyridin-6-yl)-6-methyl-1-(1-methylpiperidin-3-yl)-1,3-dihydro-2H-benzo[d]imidazol-2-one]
65.3 nM	2960 nM	CCN1CCC[C@@H](n2c(=O)[nH]c3cc(-c4cc(OC)c5ncnn5c4)c(C)cc32)C1 [Example 52, (R)-1-(1-ethylpiperidin-3-yl)-5-(8-methoxy-[1,2,4]triazolo[1,5-a]pyridin-6-yl)-6-methyl-1,3-dihydro-2H-benzo[d]imidazol-2-one]
33 nM	3750 nM	COc1cc(-c2cc3[nH]c(=O)n([C@@H]4CCCN(C(C)C)C4)c3cc2C)cn2ncnc12 [Example 53, (R)-1-(1-isopropylpiperidin-3-yl)-5-(8-methoxy-[1,2,4]triazolo[1,5-a]pyridin-6-yl)-6-methyl-1,3-dihydro-2H-benzo[d]imidazol-2-one]
29.2 nM	4230 nM	CCCN1CCC[C@@H](n2c(=O)[nH]c3cc(-c4cc(OC)c5ncnn5c4)c(C)cc32)C1 [Example 54, (R)-5-(8-methoxy-[1,2,4]triazolo[1,5-a]pyridin-6-yl)-6-methyl-1-(1-propylpiperidin-3-yl)-1,3-dihydro-2H-benzo[d]imidazol-2-one]
23.1 nM	5550 nM	COc1cc(-c2cc3[nH]c(=O)n([C@@H]4CCCN(CC5CC5)C4)c3cc2C)cn2ncnc12 [Example 55, (R)-1-(1-(cyclopropylmethyl)piperidin-3-yl)-5-(8-methoxy-[1,2,4]triazolo[1,5-a]pyridin-6-yl)-6-methyl-1,3-dihydro-2H-benzo[d]imidazol-2-one]
5.32 nM	4810 nM	COc1cc(-c2cc3[nH]c(=O)n([C@@H]4CCCN(CC(C)C)C4)c3cc2C)cn2ncnc12 [Example 56, (R)-1-(1-isobutylpiperidin-3-yl)-5-(8-methoxy-[1,2,4]triazolo[1,5-a]pyridin-6-yl)-6-methyl-1,3-dihydro-2H-benzo[d]imidazol-2-one]
8.11 nM	5940 nM	COc1cc(-c2cc3[nH]c(=O)n([C@@H]4CCCN(CC5CCOCC5)C4)c3cc2C)cn2ncnc12 [Example 57, (R)-5-(8-methoxy-[1,2,4]triazolo[1,5-a]pyridin-6-yl)-6-methyl-1-(1-((tetrahydro-2H-pyran-4-yl)methyl)piperidin-3-yl)-1,3-dihydro-2H-benzo[d]imidazol-2-one]
